Patent US12383628B2 (priority 2016, dated 2025)
Square brackets hold non-standard residues; d marks the D form. Ends that are not written are not given here. Peptide text beside a SMILES is read from it. Phe(3-Br) = N[C@@H](Cc1cccc(Br)c1)C(=O)O; Phe(4-Br) = N[C@@H](Cc1ccc(Br)cc1)C(=O)O; Phe(3-I) = N[C@@H](Cc1cccc(I)c1)C(=O)O; 2Nal = N[C@@H](Cc1ccc2ccccc2c1)C(=O)O; Dmt = Cc1cc(O)cc(C)c1C[C@H](N)C(=O)O; β3hF = N[C@H](CC(=O)O)Cc1ccccc1; Cha = N[C@@H](CC1CCCCC1)C(=O)O; Phe∗ = not defined here; Trp∗ = not defined here

Assays:
[1] = Peptide gelation (tilted tube / inverted vial test, minimum gelation concentration); type: physicochemical; details: for Minimum gelation concentration (w/v % in PBS): '/' = no gel; for Gelation behaviour: 2% w/v, PBS 10 mM, pH 7.4
Experimental: The peptide gelation occurred by dissolving the TFA salt of the hexapeptide (2 mg) in 100 μL of PBS solution (pH 7.4) or physiological saline solution (0.9% NaCl).
Both peptides 2 and 4 (Table 1) gave a transparent gel in the same conditions (PBS 10 mM at pH 7.4 with a minimum gelation concentration of 24 mM; 2% w/v). To evaluate the mechanical properties of these hydrogels in a more quantitative manner, rheological experiments were performed. The viscoelastic properties of the peptide hydrogels were measured by dynamic rheometry at 37° C. This technique allowed to measure the storage modulus G′ (corresponding to the material's stiffness or rigidity), loss modulus G″ (corresponding to the viscous properties of the material) and loss factor tan (o) (ratio of G″ over G′). According to the Winter-Chambon criterion, a material reaches gelation in rheological terms if the phase angle o gets frequency-independent (F. Chambon et al., 1987 and H. Winter et al., 1987).
The peptide gelation occurred by dissolving the TFA salt of the peptide in 100 μL of PBS solution or physiological saline solution (0.9% NaCl) (pH 7.4).
The peptide gelation occurs by dissolving the TFA salt of the hydrogelator (1 or 2 mg) in 100 μL of aqueous media, PBS solution (pH 7.4) or physiological saline solution (0.9% NaCl). After successive vortexing and sonication, the gel is left to rest overnight at room temperature.
The hydrogelation was realized under physiologically relevant conditions, namely via the addition of phosphate-buffered saline (PBS) or sterile physiological saline solution (0.9% NaCl). The needed amount of hydrogelator was weighed in an Eppendorf® and solubilized by the addition of the above solutions. After vortex and sonication steps, the resulting solution was left at room temperature until gelation occurred. The gelation was qualitatively verified by the inverted vial test (if no gravitational flow was visible the gelation was considered successful). It can be noticed that all peptide hydrogelators depicted formed gels in PBS and saline solution at a concentration of 1 to 2% w/v.

[2] = Stability and degradability of biogels in human plasma (Example 8); type: in vitro ADME; details: 37° C.; for half-life at 14 μM: human, plasma, in solution
Experimental: After centrifugation at 14 000 rpm for 15 minutes, 100 μL supernatant was diluted with 100 μL milliQ water in the injection vial. Injection samples were vortexed for 5 seconds and were analyzed by HPLC. […] Calculations were performed using Microsoft® Office Professional 2010 Excel.

Row | Compound | Minimum gelation concentration (w/v % in PBS) [1] | other results
1 | H-Phe-Glu-Phe*-Gln-Trp-Lys-NH2 (H-FE[Phe∗]QWK-NH2; not fully specified; reading uncertain) [compound 15] | 2 w/v % | 
2 | NCCCC[C@H](NC(=O)[C@H](Cc1cccc(I)c1)NC(=O)[C@H](CCC(N)=O)NC(=O)[C@H](Cc1ccccc1)NC(=O)[C@H](CCC(N)=O)NC(=O)[C@@H](N)Cc1ccccc1)C(N)=O [compound 36, H-Phe-Gln-Phe-Gln-Phe(3I)-Lys-NH2] (H-FQFQ[Phe(3-I)]K-NH2) | 1-2 w/v % | 
3 | H-Trp-Glu-Phe*-Gln-Phe-Lys-NH2 (H-WE[Phe∗]QFK-NH2; not fully specified; reading uncertain) [compound 14] | 2 w/v % | 
4 | NCCCC[C@H](NC(=O)[C@H](Cc1cccc(Br)c1)NC(=O)[C@H](CCC(N)=O)NC(=O)[C@H](Cc1cccc(Br)c1)NC(=O)[C@H](CCC(N)=O)NC(=O)[C@@H](N)Cc1ccccc1)C(N)=O [compound 32, H-Phe-Gln-Phe(3Br)-Gln-Phe(3Br)-Lys-NH2] (H-FQ[Phe(3-Br)]Q[Phe(3-Br)]K-NH2) | 1-2 w/v % | 
5 | H-DLys-DPhe-DAsn-DPhe*-DGlu-DPhe-NH2 (H-[dK][dF][dN]F[dE][dF]-NH2; not fully specified (residue 4)) [compound 22] | 2 w/v % | 
6 | NCCCC[C@H](NC(=O)[C@H](Cc1cccc(I)c1)NC(=O)[C@H](CCC(N)=O)NC(=O)[C@H](Cc1cccc(I)c1)NC(=O)[C@H](CCC(N)=O)NC(=O)[C@@H](N)Cc1ccccc1)C(N)=O [compound 37, H-Phe-Gln-Phe(3I)-Gln-Phe(3I)-Lys-NH2] (H-FQ[Phe(3-I)]Q[Phe(3-I)]K-NH2) | 1-2 w/v % | 
7 | Ac-Phe-Glu-Phe*-Gln-Phe-Lys-NH2 [peptide 3] |  | Gelation behaviour [1]: macroscopic aggregation
8 | H-IEIQIK-NH2 [compound 5, H-Ile-Glu-Ile-Gln-Ile-Lys-NH2] | 2 w/v % | Gelation behaviour [1]: formed gels
9 | SEQ ID NO: 56, modified by the inclusion of an ester as linker: biogel MOJ-02 modified by an ester linker (spacer) between the hydrogelator part and the biological active ingredient (Y[dR]FFQ[β3hF]FQFK-NH2; not fully specified (residue 9); also: ester linker between hydrogelator part and active ingredient, position not given here) |  | Biogel formation [1]: able to form a biogel spontaneously
10 | H-Phe-Glu-Phe*-Asn-Phe-Lys-NH2 (H-FE[Phe∗]NFK-NH2; not fully specified; reading uncertain) [compound 11] | 1 w/v % | 
11 | Cc1cc(O)cc(C)c1C[C@H](N)C(=O)N[C@H](CCCCN)C(=O)N[C@@H](Cc1ccccc1)C(=O)N[C@@H](Cc1ccccc1)C(=O)N[C@@H](CCC(N)=O)C(=O)N[C@@H](Cc1ccccc1)C(=O)N[C@@H](CCC(N)=O)C(=O)N[C@@H](Cc1ccccc1)C(=O)N[C@@H](CCCCN)C(N)=O [CM-136, Dmt-OLy:s-Phe-Phe-Gln-Phe*-Gln-Phe*-Lys-NH2] (H-[Dmt][dK]FFQFQFK-NH2) |  | half-life at 14 μM [2]: ~0.183 h
12 | H-DLys-DPhe-DGln-DPhe*-DGlu-DPhe-NH2 (H-[dK][dF][dQ]F[dE][dF]-NH2; not fully specified (residue 4)) [compound 19] | 2 w/v % | 
13 | H-DLys-DPhe-DGlu-DPhe*-DGlu-DPhe-NH2 (H-[dK][dF][dE]F[dE][dF]-NH2; not fully specified (residue 4)) [compound 23] | 2 w/v % | 
14 | H-Leu-Glu-Leu-Gln-Leu-Lys-NH2 (H-LELQLK-NH2) [peptide 6] |  | Gelation behaviour [1]: remained in solution
15 | NCCCC[C@H](NC(=O)[C@H](Cc1ccc2ccccc2c1)NC(=O)[C@H](CCC(N)=O)NC(=O)[C@H](Cc1ccc2ccccc2c1)NC(=O)[C@H](CCC(=O)O)NC(=O)[C@@H](N)Cc1ccc2ccccc2c1)C(N)=O [compound 13, H-(2-Nal)-Glu-(2-Nal)-Gln-(2-Nal)-Lys-NH2] (H-[2Nal]E[2Nal]Q[2Nal]K-NH2) | 2 w/v % | 
16 | H-AEAQAK-NH2 [compound 8, H-Ala-Glu-Ala-Gln-Ala-Lys-NH2] |  | Gelation behaviour [1]: remained in solution
17 | H-DPhe-DGlu-DPhe*-DGln-DPhe-DLys-OH (H-[dF][dE]F[dQ][dF][dK]-OH; not fully specified (residue 3)) [compound 25] | 1 w/v % | 
18 | H-Phe-Glu-Trp*-Gln-Phe-Lys-NH2 (H-FE[Trp∗]QFK-NH2; not fully specified; reading uncertain) [compound 21] | 2 w/v % | 
19 | H-Lys-Phe-Gln-Phe*-Glu-Phe-OH (H-KFQ[Phe∗]EF-OH; not fully specified; reading uncertain) [compound 26] | 2 w/v % | 
20 | NCCCC[C@H](NC(=O)[C@H](Cc1ccccc1)NC(=O)[C@H](CCC(N)=O)NC(=O)[C@H](Cc1cccc(Br)c1)NC(=O)[C@H](CCC(N)=O)NC(=O)[C@@H](N)Cc1ccccc1)C(N)=O [compound 34, H-Phe-Gln-Phe(3Br)-Gln-Phe-Lys-NH2] (H-FQ[Phe(3-Br)]QFK-NH2) | 1-2 w/v % | 
21 | H-Phe-Glu-Phe*-Lys-Phe-Ser-NH2 (H-FE[Phe∗]KFS-NH2; not fully specified; reading uncertain) [compound 20] | 1 w/v % | 
22 | H-Phe-Glu-Phe*-Asn-Phe-Lys-OH (H-FE[Phe∗]NFK-OH; not fully specified; reading uncertain) [compound 10] | 1 w/v % | 
23 | NCCCC[C@H](NC(=O)[C@H](Cc1cccc(Br)c1)NC(=O)[C@H](CCC(N)=O)NC(=O)[C@H](Cc1ccccc1)NC(=O)[C@H](CCC(N)=O)NC(=O)[C@@H](N)Cc1ccccc1)C(N)=O [compound 31, H-Phe-Gln-Phe-Gln-Phe(3Br)-Lys-NH2] (H-FQFQ[Phe(3-Br)]K-NH2) | 1-2 w/v % | 
24 | H-VEVQVK-NH2 [compound 7, H-Val-Glu-Val-Gln-Val-Lys-NH2] |  | Gelation behaviour [1]: remained in solution
25 | Cc1cc(O)cc(C)c1C[C@H](N)C(=O)N[C@H](CCCNC(=N)N)C(=O)N[C@@H](Cc1ccccc1)C(=O)N[C@@H](Cc1ccccc1)C(=O)N[C@@H](CCC(N)=O)C(=O)N[C@H](CC(=O)N[C@@H](Cc1ccccc1)C(=O)N[C@@H](CCC(N)=O)C(=O)N[C@@H](Cc1ccccc1)C(=O)N[C@@H](CCCCN)C(N)=O)Cc1ccccc1 [CM-137, Dmt-OArg-Phe-Phe-Gln-J3;s-homo-Phe-Phe-Gln-Phe*-Lys-NH2] (H-[Dmt][dR]FFQ[β3hF]FQFK-NH2; N-terminus assumed) |  | Extent of degradation ([2]; human plasma): the degradation stops after the cleavage of the first Gin; half-life at 14 μM [2]: ~2.05 h
26 | H-DPhe-DGlu-DPhe*-DGln-DPhe-DLys-NH2 (H-[dF][dE]F[dQ][dF][dK]-NH2; not fully specified (residue 3)) [compound 17] | 2 w/v % | 
27 | NCCCC[C@H](NC(=O)[C@H](Cc1ccc(Br)cc1)NC(=O)[C@H](CCC(N)=O)NC(=O)[C@H](Cc1ccc(Br)cc1)NC(=O)[C@H](CCC(N)=O)NC(=O)[C@@H](N)Cc1ccc(Br)cc1)C(N)=O [compound 35, H-Phe(4Br)-Gln-Phe(4Br)-Gln-Phe(4Br)-Lys-NH2] (H-[Phe(4-Br)]Q[Phe(4-Br)]Q[Phe(4-Br)]K-NH2) | 1-2 w/v % | 
28 | NCCCC[C@H](NC(=O)[C@H](CC1CCCCC1)NC(=O)[C@H](CCC(N)=O)NC(=O)[C@H](CC1CCCCC1)NC(=O)[C@H](CCC(=O)O)NC(=O)[C@@H](N)CC1CCCCC1)C(N)=O [compound 9, H-Cha-Glu-Cha-Gln-Cha-Lys-NH2] (H-[Cha]E[Cha]Q[Cha]K-NH2) | 2 w/v % | Gelation behaviour [1]: formed gels
